We go through 12 compounds from patent US20200138827A1, “SMALL MOLECULE MODULATORS OF HUMAN STING” (Curadev Pharma Limited, priority 2017, published 2020).

Like-named read-outs stand apart in the source and are kept apart here.

The target of one assay is T1, hSTING(H232) (Homo sapiens, UniProt Q86WV6).
T1 construct: host or cells: HEK293T
Briefly: Luciferase reporter assay in HEK293T-hSTING-Luciferase cells, H232 polymorph. To be noted: 20 hr stimulation, read-out: H232 activity (EC50 range). The class given is cell-based. An outline of the steps:
(§1)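 HEK293T clones stably expressed the given human STING variant plus luciferase under an ISRE/ISG54 IRF-inducible promoter. 5×10^5 cells were stimulated with compound for 20 hr, and secreted luciferase in the supernatant was measured by Quanti-Luc luminescence.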
Background: Reporter assays use an easily measured gene product as a stand-in for the process of interest.

In another assay the target is T2, hSTING(HAQ) (Homo sapiens, UniProt Q86WV6, G230A/H232R/R293Q/R71H).
T2 construct: host or cells: HEK293T
T2 sequence (Q86WV6 whole entry R71H/G230A/H232R/R293Q): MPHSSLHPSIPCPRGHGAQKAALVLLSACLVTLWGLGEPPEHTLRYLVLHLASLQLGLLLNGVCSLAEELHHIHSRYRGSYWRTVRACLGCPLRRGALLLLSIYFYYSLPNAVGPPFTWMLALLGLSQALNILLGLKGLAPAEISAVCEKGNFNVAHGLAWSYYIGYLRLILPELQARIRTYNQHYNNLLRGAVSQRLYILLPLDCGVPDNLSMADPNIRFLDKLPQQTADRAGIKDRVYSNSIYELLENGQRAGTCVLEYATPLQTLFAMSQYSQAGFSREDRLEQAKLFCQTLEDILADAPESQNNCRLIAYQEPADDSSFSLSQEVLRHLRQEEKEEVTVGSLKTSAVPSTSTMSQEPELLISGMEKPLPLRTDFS
Briefly: Luciferase reporter assay in HEK293T-hSTING-Luciferase cells, HAQ polymorph. The class given is cell-based. To be noted: 20 hr stimulation, read-out: HAQ activity (EC50 range). In a few lines:
as §1

In another assay the test system is IRF pathway. The experiment in a line: Reporter gene expression assay in THP1-Dual cells, IRF axis (secreted Lucia luciferase). The class given is cell-based, human. To be noted: read-out: THP-IRF activity (EC50 range). An outline of the steps: (§2)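 THP-1-derived cells carrying inducible NF-κB-SEAP and IRF-Lucia reporters, seeded at 5×10^5 and stimulated with compounds. After […], supernatant SEAP read with QUANTI-Blue and Lucia luciferase with QUANTI-Luc.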

A further assay has as its target T3, WT/R232 STING protein (Homo sapiens, UniProt Q86WV6, H232R).
T3 construct: host or cells: HEK293T
Briefly: Luciferase reporter assay in HEK293T-hSTING-Luciferase cells, WT/R232. The class given is cell-based. To be noted: 20 hr stimulation, read-out: R232 Activity (EC50 range). An outline of the steps: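 Clonal HEK293T cells stably expressing human STING R232 plus an ISRE/ISG54-driven luciferase reporter, 5×10^5 per well, stimulated with compounds for 20 h. Secreted luciferase in supernatant measured by luminescence; […].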

A further assay concerns NF-κB pathway. Briefly: Reporter gene expression assay in THP1-Dual cells, NFkB axis (secreted SEAP). The class given is cell-based, human. To be noted: read-out: THP-NFKB activity (EC50 range). An outline of the steps: as §2

T3 sequence (Q86WV6 whole entry H232R): as the sequence (Q86WV6 whole entry R71H/G230A/H232R/R293Q) above, with H71R, A230G, Q293R counted along it
T1 sequence (Q86WV6 whole entry): as the sequence (Q86WV6 whole entry R71H/G230A/H232R/R293Q) above, with H71R, A230G, R232H, Q293R counted along it

What is called EC50 is the midpoint of the concentration-response curve. Turning to `C[C@@H]1Oc2ccc(C(=O)NCc3cc4ccccc4o3)cc2N(Cc2cc(F)cc(F)c2)C1=O` [Example 235, (S)-N-(benzofuran-2-ylmethyl)-4-(3,5-difluorobenzyl)-2-methyl-3-oxo-3,4-dihydro-2H-benzo[b-1,4]oxazine-6-carboxamide], the 50% effective concentration (EC50) on hSTING(H232) was 1 to 10 µM; on hSTING(HAQ), 1 to 10 µM; in the assay with IRF pathway (Homo sapiens, THP1-Dual) it was 1 to 10 µM; at WT/R232 STING protein, below 1 µM; with NF-κB pathway (Homo sapiens, THP1-Dual), 1 to 10 µM.

Regarding `C[C@H]1Oc2ccc(C(=O)NCc3c(F)cc(F)cc3F)cc2N(Cc2cc(F)cc(F)c2)C1=O` [Example 242, (R)-4-(3,5-difluorobenzyl)-2-methyl-3-oxo-N-(2,4,6-trifluorobenzyl)-3,4-dihydro-2H-benzo[b][1,4] oxazine-6-carboxamide], the EC50 at hSTING(H232) is above 10 µM; on hSTING(HAQ), 1 to 10 µM; in the assay with IRF pathway, above 10 µM; at WT/R232 STING protein, below 1 µM; in the assay with NF-κB pathway, above 10 µM.

As for `C[C@@H]1Oc2ccc(C(=O)NCc3c(F)cc(F)cc3F)cc2N(Cc2cc(F)cc(F)c2)C1=O` [Example 243, (S)-4-(3,5-difluorobenzyl)-2-methyl-3-oxo-N-(2,4,6-trifluorobenzyl)-3,4-dihydro-2H-benzo[b][1,4] oxazine-6-carboxamide], the EC50 at hSTING(H232) is below 1 µM; at hSTING(HAQ), below 1 µM; with IRF pathway, above 10 µM; on WT/R232 STING protein, below 1 µM; in the assay on NF-κB pathway, above 10 µM.

In the case of `O=C(NCc1c(F)cc(F)cc1F)c1ccc2c(c1)N(C(=O)c1c(F)cccc1Cl)CCS2` [Example 258, 4-(2-chloro-6-fluorobenzoyl)-N-(2,4,6-trifluorobenzyl)-3,4-dihydro-2H-benzo[b][1,4]thiazine-6-carboxamide], the concentration for a half-maximal effect (EC50) was above 10 µM on hSTING(H232); above 10 µM on hSTING(HAQ); above 10 µM with IRF pathway (Homo sapiens, THP1-Dual); 1 to 10 µM at WT/R232 STING protein; above 10 µM with NF-κB pathway (Homo sapiens, THP1-Dual).

For the compound `CC1Cc2ccc(C(=O)NCc3c(F)cc(F)cc3F)cc2N(Cc2c(F)cccc2Cl)C1=O` (stereo not drawn) [Example 267, 1-(2-Chloro-6-fluorobenzyl)-3-methyl-2-oxo-N-(2,4,6-trifluorobenzyl)-1,2,3,4-tetrahydroquinoline-7-carboxamide], the EC50 on hSTING(H232) is below 1 µM; on hSTING(HAQ), below 1 µM; with IRF pathway (Homo sapiens, THP1-Dual) it was 1 to 10 µM; at WT/R232 STING protein, below 1 µM; with NF-κB pathway (Homo sapiens, THP1-Dual) it was 1 to 10 µM.

In the case of `O=C(NCc1ccc(F)cc1)c1ccc2c(c1)N(Cc1c(F)cccc1Cl)C(=O)CC2` [Example 269, 1-(2-chloro-6-fluorobenzyl)-N-(4-fluorobenzyl)-2-oxo-1,2,3,4-tetrahydroquinoline-7-carboxamide], the EC50 is above 10 µM at hSTING(H232); 1 to 10 µM at hSTING(HAQ); above 10 µM in the assay on IRF pathway (Homo sapiens, THP1-Dual); below 1 µM at WT/R232 STING protein; above 10 µM in the assay with NF-κB pathway (Homo sapiens, THP1-Dual).

With `O=C(NCc1c(F)cc(F)cc1F)c1ccc2c(c1)N(Cc1c(F)cccc1Cl)C(=O)CC2` [Example 270, 1-(2-chloro-6-fluorobenzyl)-2-oxo-N-(2,4,6-trifluorobenzyl)-1,2,3,4-tetrahydroquinoline-7-carboxamide], the EC50 on hSTING(H232) is below 1 µM; at hSTING(HAQ), 1 to 10 µM; in the assay with IRF pathway (Homo sapiens, THP1-Dual), above 10 µM; at WT/R232 STING protein, below 1 µM; in the assay with NF-κB pathway (Homo sapiens, THP1-Dual), 1 to 10 µM.

Regarding `CC1(C)CC(=O)N(Cc2cc(F)cc(F)c2)c2cc(C(=O)NCc3c(F)cc(F)cc3F)ccc21` [Example 271, 1-(3,5-difluorobenzyl)-4,4-dimethyl-2-oxo-N-(2,4,6-trifluorobenzyl)-1,2,3,4-tetrahydroquinoline-7-carboxamide], the half-maximal effective concentration (EC50) on hSTING(H232) was below 1 µM; at hSTING(HAQ), below 1 µM; in the assay with IRF pathway (Homo sapiens, THP1-Dual), 1 to 10 µM; at WT/R232 STING protein it was below 1 µM; with NF-κB pathway (Homo sapiens, THP1-Dual), 1 to 10 µM.

`O=C(NCc1ccc(F)cc1F)c1ccc2c(n1)N(Cc1cc(F)cc(F)c1)C(=O)CC2` [Example 279, N-(2,4-difluorobenzyl)-8-(3,5-difluorobenzyl)-7-oxo-5,6,7,8-tetrahydro-1,8-naphthyridine-2-carboxamide]: the EC50 at hSTING(H232) was above 10 µM; at hSTING(HAQ), above 10 µM; in the assay on IRF pathway (Homo sapiens, THP1-Dual), above 10 µM; at WT/R232 STING protein, 1 to 10 µM; with NF-κB pathway (Homo sapiens, THP1-Dual), above 10 µM.

As to `O=C(NCc1cc2ccccc2o1)c1ccc2c(n1)N(Cc1cc(F)cc(F)c1)C(=O)CC2` [Example 281, N-(benzofuran-2-ylmethyl)-8-(3,5-difluorobenzyl)-7-oxo-5,6,7,8-tetrahydro-1,8-naphthyridine-2-carboxamide], the EC50 is 1 to 10 µM at hSTING(H232); 1 to 10 µM at hSTING(HAQ); above 10 µM with IRF pathway (Homo sapiens, THP1-Dual); 1 to 10 µM at WT/R232 STING protein; above 10 µM in the assay with NF-κB pathway (Homo sapiens, THP1-Dual).

For `O=C(NCc1c(F)cc(F)cc1F)c1ccc2c(c1)N(Cc1cc(F)cc(F)c1)S(=O)(=O)CC2` [Example 284, 1-(3,5-Difluorobenzyl)-N-(2,4,6-trifluorobenzyl)-3,4-dihydro-1H-benzo[c][1,2]thiazine-7-carboxamide 2,2-dioxide], the EC50 at hSTING(H232) is above 10 µM; on hSTING(HAQ), above 10 µM; in the assay on IRF pathway (Homo sapiens, THP1-Dual) it was above 10 µM; at WT/R232 STING protein, below 1 µM; with NF-κB pathway (Homo sapiens, THP1-Dual), above 10 µM.

Turning to `CC1Cc2ccc(C(=O)NCc3c(F)cc(F)cc3F)cc2N(Cc2cc(F)cc(F)c2)S1(=O)=O` (stereo not drawn) [Example 285, 1-(3,5-Difluorobenzyl)-3-methyl-N-(2,4,6-trifluorobenzyl)-3,4-dihydro-1H-benzo[c][1,2]thiazine-7-carboxamide 2,2-dioxide], the EC50 is 1 to 10 µM on hSTING(H232); 1 to 10 µM at hSTING(HAQ); above 10 µM in the assay on IRF pathway (Homo sapiens, THP1-Dual); 1 to 10 µM at WT/R232 STING protein; above 10 µM in the assay with NF-κB pathway (Homo sapiens, THP1-Dual).
